{
  "source": "ChEMBL document CHEMBL1201862",
  "about": "“PubChem BioAssay data set” (2004)",
  "key": {"Caspase-6": {"molecular_target": "Caspase-6 (Homo sapiens, UniProt P55212)", "sequence (P55212 24-179 limits assumed)": "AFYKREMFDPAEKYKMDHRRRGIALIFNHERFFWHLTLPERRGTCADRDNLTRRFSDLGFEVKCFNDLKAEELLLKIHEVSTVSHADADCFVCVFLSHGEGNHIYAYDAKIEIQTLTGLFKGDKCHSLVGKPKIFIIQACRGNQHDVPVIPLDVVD", "sequence (P55212 194-293 limits assumed)": "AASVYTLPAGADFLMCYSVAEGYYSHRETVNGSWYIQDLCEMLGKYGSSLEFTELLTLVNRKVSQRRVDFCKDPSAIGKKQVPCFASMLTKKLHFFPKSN", "test": "human caspase-6 inhibitors, dose response, biochemical, VEID-R110 fluorescence, cherry-pick (AID 720632)"}, "Large T antigen": {"molecular_target": "Large T antigen (Simian virus 40, UniProt P03070)", "sequence (P03070 whole entry)": "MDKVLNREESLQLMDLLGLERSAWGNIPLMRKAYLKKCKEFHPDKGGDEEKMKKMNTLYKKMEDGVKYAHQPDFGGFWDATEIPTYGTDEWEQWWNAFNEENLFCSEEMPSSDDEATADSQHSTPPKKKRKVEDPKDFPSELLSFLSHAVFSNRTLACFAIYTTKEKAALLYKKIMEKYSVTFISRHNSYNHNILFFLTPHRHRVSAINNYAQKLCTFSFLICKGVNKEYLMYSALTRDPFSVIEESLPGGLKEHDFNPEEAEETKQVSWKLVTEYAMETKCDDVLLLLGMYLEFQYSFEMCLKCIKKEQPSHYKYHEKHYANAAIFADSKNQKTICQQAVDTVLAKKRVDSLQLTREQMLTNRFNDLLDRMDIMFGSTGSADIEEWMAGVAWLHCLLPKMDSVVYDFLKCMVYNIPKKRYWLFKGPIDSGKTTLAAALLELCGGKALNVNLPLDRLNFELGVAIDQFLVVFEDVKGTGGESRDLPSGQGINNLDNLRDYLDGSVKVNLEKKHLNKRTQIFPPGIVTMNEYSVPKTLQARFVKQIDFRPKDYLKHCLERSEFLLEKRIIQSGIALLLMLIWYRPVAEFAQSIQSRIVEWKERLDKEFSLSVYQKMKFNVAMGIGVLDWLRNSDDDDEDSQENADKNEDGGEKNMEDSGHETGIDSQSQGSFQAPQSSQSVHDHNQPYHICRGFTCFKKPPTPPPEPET", "type": "functional, Betapolyomavirus macacae"}, "[1]": {"test": "A549 cell cytotoxicity, dose response, cytotoxicity control, 24 h, CellTiter-Glo luminescence, cherry-picks (AID 1053115)", "type": "functional, cell-based", "conditions": "A549, 24 h"}, "[2]": {"test": "AlphaScreen signal interference by compounds, dose response, artefact control for ARNT/TACC3 disruptor project, biochemical, dual-tagged ARNT, dry powder (AID 720564)"}, "[3]": {"test": "HEK293T cell cytotoxicity, dose response, cytotoxicity control, CellTiter-Glo luminescence, dry powder, set 2 (AID 720595)", "type": "functional, cell-based", "conditions": "HEK293"}, "[4]": {"test": "HeLa cell cytotoxicity, dose response, cytotoxicity control, CellTiter-Glo luminescence, dry powder, set 2 (AID 720593)", "type": "functional, cell-based"}, "fMet-Leu-Phe receptor": {"molecular_target": "fMet-Leu-Phe receptor (Homo sapiens, UniProt P21462)", "sequence (P21462 whole entry)": "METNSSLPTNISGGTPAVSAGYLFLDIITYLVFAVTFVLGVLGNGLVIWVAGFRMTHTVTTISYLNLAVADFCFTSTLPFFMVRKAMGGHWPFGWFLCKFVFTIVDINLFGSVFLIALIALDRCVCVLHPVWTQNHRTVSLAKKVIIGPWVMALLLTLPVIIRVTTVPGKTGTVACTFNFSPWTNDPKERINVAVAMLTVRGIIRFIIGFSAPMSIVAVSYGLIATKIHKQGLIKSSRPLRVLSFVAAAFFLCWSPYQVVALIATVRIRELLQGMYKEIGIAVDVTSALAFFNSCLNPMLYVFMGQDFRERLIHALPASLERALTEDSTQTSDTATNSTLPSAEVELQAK", "test": "FPR ligands, dose response (AID 519)", "type": "functional"}, "[5]": {"molecular_target": "C-C chemokine receptor type 6 (Homo sapiens, UniProt P51684)", "sequence (P51684 whole entry)": "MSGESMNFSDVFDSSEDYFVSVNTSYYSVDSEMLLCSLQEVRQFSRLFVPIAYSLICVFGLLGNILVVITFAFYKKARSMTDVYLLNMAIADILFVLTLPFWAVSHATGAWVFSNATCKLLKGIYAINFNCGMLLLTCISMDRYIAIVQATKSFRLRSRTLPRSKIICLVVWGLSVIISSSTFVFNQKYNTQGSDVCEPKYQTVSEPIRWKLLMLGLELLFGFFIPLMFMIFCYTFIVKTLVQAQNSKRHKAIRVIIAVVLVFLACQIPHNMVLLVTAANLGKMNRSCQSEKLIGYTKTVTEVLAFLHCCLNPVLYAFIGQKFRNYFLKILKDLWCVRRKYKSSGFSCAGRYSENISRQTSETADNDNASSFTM", "test": "SAR analysis of small molecule antagonists of the CXCR6 receptor using a CCR6 receptor luminescent beta-arrestin counterscreen.", "type": "functional"}, "[6]": {"molecular_target": "C-X-C chemokine receptor type 4 (Homo sapiens, UniProt P61073)", "sequence (P61073 whole entry)": "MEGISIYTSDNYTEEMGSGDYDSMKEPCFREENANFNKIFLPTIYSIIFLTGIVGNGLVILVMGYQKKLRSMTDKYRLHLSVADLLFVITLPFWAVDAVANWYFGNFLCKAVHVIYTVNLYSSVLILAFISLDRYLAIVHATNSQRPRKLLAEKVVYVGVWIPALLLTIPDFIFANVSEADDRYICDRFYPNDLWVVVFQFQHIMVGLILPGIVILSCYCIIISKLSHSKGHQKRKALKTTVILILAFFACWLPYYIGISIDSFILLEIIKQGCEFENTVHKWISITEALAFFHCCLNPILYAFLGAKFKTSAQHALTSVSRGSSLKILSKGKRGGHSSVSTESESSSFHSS", "test": "SAR analysis of small molecule antagonists of the CXCR6 receptor using a CXCR4 receptor luminescent beta-arrestin counterscreen.", "type": "functional"}, "[7]": {"molecular_target": "Endoplasmic reticulum aminopeptidase 1 (Homo sapiens, UniProt Q9NZ08)", "sequence (Q9NZ08 whole entry)": "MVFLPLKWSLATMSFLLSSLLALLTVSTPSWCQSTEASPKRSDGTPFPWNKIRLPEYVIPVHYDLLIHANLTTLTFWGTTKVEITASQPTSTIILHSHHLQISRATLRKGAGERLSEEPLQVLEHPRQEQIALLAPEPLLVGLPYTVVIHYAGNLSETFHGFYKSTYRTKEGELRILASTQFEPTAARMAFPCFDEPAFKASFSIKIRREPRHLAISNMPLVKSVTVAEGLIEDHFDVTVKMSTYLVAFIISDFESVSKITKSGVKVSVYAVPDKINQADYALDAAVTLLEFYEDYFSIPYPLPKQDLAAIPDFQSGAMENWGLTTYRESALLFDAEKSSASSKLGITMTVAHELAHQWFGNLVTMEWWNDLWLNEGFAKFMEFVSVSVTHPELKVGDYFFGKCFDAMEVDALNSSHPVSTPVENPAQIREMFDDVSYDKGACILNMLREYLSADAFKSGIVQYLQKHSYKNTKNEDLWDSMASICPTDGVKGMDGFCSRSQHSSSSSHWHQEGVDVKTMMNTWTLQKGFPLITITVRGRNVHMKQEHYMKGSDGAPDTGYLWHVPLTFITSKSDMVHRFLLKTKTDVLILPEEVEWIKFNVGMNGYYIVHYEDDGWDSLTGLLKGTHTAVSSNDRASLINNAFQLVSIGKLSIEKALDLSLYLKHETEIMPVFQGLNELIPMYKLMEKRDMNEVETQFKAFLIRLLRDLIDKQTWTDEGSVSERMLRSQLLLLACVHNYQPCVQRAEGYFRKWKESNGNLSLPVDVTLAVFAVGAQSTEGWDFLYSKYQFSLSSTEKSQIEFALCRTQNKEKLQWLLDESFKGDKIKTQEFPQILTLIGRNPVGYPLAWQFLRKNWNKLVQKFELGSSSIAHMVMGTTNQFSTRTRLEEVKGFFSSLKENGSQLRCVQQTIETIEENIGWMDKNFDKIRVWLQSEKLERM", "test": "ERAP1 aminopeptidase inhibitors, dose response, biochemical, cherry-pick, set 2, plate reader (AID 743314)"}, "[8]": {"molecular_target": "T1, Serine/threonine-protein phosphatase (Homo sapiens, UniProt Q9BPW0)", "T1 sequence (Q9BPW0 whole entry)": "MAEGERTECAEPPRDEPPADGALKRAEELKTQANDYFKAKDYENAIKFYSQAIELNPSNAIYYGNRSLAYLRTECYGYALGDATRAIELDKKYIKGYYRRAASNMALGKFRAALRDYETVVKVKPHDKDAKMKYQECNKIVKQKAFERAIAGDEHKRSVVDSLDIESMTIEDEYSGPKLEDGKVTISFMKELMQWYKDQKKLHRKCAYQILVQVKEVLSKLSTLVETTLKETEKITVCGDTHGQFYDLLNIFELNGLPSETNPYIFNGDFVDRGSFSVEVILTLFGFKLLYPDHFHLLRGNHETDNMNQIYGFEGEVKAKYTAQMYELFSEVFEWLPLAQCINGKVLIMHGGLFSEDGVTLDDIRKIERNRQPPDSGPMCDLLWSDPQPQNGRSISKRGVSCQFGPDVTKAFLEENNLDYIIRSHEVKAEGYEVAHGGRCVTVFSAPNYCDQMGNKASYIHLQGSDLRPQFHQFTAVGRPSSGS", "test": "Counterscreen for inhibitors of PP1: fluorescence-based biochemical high throughput dose response assay to identify inhibitors of Protein Phosphatase 5 (PP5). [Related pubchem assays: 2034 (Summary (PP5 inhibitors)), 1987 (PP5 inhibitors in singlate), 2235 (PP1 inhibitors in singlate)]"}, "Aminopeptidase N": {"molecular_target": "T2, Aminopeptidase N (Plasmodium falciparum FcB1/Columbia, UniProt O96935)", "T2 sequence (O96935 whole entry)": "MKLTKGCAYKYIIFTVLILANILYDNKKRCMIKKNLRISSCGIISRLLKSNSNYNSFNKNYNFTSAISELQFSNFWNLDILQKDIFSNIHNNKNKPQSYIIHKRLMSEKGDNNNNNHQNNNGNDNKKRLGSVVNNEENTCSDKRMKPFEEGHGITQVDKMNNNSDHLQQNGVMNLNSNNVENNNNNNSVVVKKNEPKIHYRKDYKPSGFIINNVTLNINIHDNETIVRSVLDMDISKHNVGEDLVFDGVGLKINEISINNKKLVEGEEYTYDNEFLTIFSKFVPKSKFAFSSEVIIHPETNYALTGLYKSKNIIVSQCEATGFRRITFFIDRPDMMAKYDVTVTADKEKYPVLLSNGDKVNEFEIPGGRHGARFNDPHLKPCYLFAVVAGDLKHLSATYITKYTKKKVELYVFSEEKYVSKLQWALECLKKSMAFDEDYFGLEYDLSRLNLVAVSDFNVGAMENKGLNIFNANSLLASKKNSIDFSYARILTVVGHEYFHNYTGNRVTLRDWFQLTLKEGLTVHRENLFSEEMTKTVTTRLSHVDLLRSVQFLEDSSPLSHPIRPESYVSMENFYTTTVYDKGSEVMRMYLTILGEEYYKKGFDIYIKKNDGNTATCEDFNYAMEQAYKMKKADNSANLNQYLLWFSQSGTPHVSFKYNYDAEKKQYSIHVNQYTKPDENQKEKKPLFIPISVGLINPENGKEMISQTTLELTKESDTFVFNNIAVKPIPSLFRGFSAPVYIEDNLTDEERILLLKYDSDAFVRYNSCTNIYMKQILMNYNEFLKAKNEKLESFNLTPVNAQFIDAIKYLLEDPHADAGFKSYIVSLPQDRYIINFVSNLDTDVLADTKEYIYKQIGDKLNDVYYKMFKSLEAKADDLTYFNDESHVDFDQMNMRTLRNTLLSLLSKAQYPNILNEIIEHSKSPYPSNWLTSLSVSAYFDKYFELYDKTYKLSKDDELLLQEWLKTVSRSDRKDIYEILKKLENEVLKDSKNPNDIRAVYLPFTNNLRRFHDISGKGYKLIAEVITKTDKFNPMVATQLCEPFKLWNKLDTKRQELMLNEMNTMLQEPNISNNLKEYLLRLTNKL", "test": "P. falciparum M1AAP inhibitors, biochemical, fluorogenic H-Leu-NHMec substrate, 1536-well (AID 1445)", "design": "species or system Plasmodium falciparum 3D7, 3D7"}, "[9]": {"molecular_target": "Serine/threonine-protein phosphatase PP1-alpha catalytic subunit (Homo sapiens, UniProt P62136)", "sequence (P62136 whole entry)": "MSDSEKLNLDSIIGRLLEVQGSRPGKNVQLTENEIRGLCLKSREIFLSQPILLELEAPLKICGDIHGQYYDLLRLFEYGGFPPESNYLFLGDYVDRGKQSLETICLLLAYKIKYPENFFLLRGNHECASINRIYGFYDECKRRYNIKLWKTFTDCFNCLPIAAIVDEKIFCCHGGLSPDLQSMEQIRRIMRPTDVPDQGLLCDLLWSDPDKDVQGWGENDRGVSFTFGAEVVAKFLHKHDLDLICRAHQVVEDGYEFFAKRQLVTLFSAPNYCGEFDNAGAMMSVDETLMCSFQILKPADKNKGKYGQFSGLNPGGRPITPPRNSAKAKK", "test": "PP1 phosphatase inhibitors, dose response, biochemical, fluorescence (AID 2403);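 note: phosphatase turnover of OMFP into fluorescent 3-O-methylfluorescein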"}, "[10]": {"test": "inhibitors of fibronectin matrix deposition, dose response, AH1F cells, Alexa488-FN fluorescence, cherry-picks (AID 1035475)", "type": "functional, cell-based"}, "[11]": {"test": "HEK293 cell cytotoxicity, dose response, cytotoxicity control, cherry-picks, set 5 (AID 1053117)", "type": "functional, cell-based"}, "[12]": {"test": "A549 cell cytotoxicity, dose response, cytotoxicity control, cherry-picks, 26 µM top dose (AID 1053119)", "type": "functional, cell-based"}},
  "note": "Active and inactive are the calls of the source.",
  "data": [
    {"compound": "COc1ccc(Br)cc1C1CC(=O)N2CN(C)CSC2=C1C#N", "note": "(stereo unspecified)", "values": [
      {"measurement": "AC50", "setting": "Caspase-6", "result": "39.2 µM (active)"},
      {"measurement": "IC50", "setting": "Large T antigen", "result": "76.9 µM (active)"}
    ]},
    {"compound": "COc1ccccc1CN1CC[C@@H]2[C@H](CO)Nc3ccc(C#Cc4ccccc4)cc3[C@@H]21", "values": [
      {"measurement": "AC50", "setting": "[1]", "result": "> 60 µM (inactive)"}
    ]},
    {"compound": "O=C(Nc1nnc(-c2ccc(F)cc2)o1)c1ccc(S(=O)(=O)N2CCCCC2)cc1", "values": [
      {"measurement": "AC50", "setting": "[2]", "result": "72.4 µM (active)"},
      {"measurement": "AC50", "setting": "[3]", "result": "2.51 µM (active)"},
      {"measurement": "AC50", "setting": "[4]", "result": "46.1 µM (active)"}
    ]},
    {"compound": "Cc1cc(SCC(N)=O)nc(SCC(=O)c2ccccc2)n1", "values": [
      {"measurement": "Ki", "setting": "fMet-Leu-Phe receptor", "result": "> 66.7 µM (inactive)"}
    ]},
    {"compound": "COc1cc(C(=O)NC2CC3CCCC(C2)N3CC(=O)Nc2ccccc2)cc(OC)c1OC", "note": "(stereo unspecified)", "values": [
      {"measurement": "IC50", "setting": "[5]", "result": "> 79 µM (inactive)"},
      {"measurement": "IC50", "setting": "[6]", "result": "> 79 µM (inactive)"}
    ]},
    {"compound": "CCCCCCC[C@H](N)[C@H](O)C(=O)N(C)[C@@H](CC[S+](C)[O-])C(=O)N[C@@H](Cc1ccc(O)cc1)C(=O)N[C@@H](Cc1ccc(O)cc1)C(=O)O", "note": "(stereo partly specified)", "values": [
      {"measurement": "AC50", "setting": "[7]", "result": "8.53 µM (active)"},
      {"measurement": "IC50", "setting": "[8]", "result": "0.578 µM (active)"},
      {"measurement": "IC50", "setting": "Aminopeptidase N", "result": "16.8 µM (active)"},
      {"measurement": "IC50", "setting": "[9]", "result": "0.227 µM (active)"}
    ]},
    {"compound": "N#Cc1ccc(-c2ccc3c(c2)[C@H]2[C@H](CCN2S(=O)(=O)c2cccc(F)c2)[C@H](CO)N3)cc1", "values": [
      {"measurement": "AC50", "setting": "[10]", "result": "5.71 µM (active)"},
      {"measurement": "AC50", "setting": "[11]", "result": "32.6 µM (active)"},
      {"measurement": "AC50", "setting": "[12]", "result": "33.6 µM (active)"}
    ]}
  ]
}
